Measured values published in PMC6375636, “Monotherapy with a low-dose lipopeptide HIV fusion inhibitor maintains long-term viral suppression in rhesus macaques” (PLoS Pathogens, 2019).
Peptide text beside a SMILES is read from it. * marks the point of attachment. Stearoyl = CCCCCCCCCCCCCCCCCC(=O)*

Experiments:
[1] = test system: HIV-1NL4-3 pseudovirus; assay: Ex vivo inhibitory activity of sera from monkeys administrated LP-80 (single-cycle infection assay); assay type: in vivo, Chinese rhesus macaques; details: monkey sera after SC 3 mg/kg
Description: A single-cycle infection assay was performed to determine the inhibitory activity of the monkey sera on HIV-1NL4-3 pseudovirus. The 50% effective concentration was defined as the fold serum dilution that inhibited 50% of virus infection.

[2] = in vivo; details: Sprague-Dawley, rat, 6 mg/kg

CCCCCCCCCCCCCCCCCC(=O)NCCCC[C@H](NC(=O)[C@H](CCC(=O)O)NC(=O)[C@H](CC(C)C)NC(=O)[C@H](CCCCN)NC(=O)[C@H](CCCCN)NC(=O)[C@H](CC(C)C)NC(=O)[C@H](CCC(=O)O)NC(=O)[C@H](CCC(=O)O)NC(=O)[C@H](CCC(=O)O)NC(=O)[C@H](CC(N)=O)NC(=O)[C@H](CCCCN)NC(=O)[C@H](CCCCN)NC(=O)[C@H](CCC(N)=O)NC(=O)[C@H](CCC(N)=O)NC(=O)[C@H](CCC(=O)O)NC(=O)[C@H](CCC(=O)O)NC(=O)[C@H](C)NC(=O)[C@H](CCCCN)NC(=O)[C@H](CCCCN)NC(=O)[C@H](CC(C)C)NC(=O)[C@H](CC(C)C)NC(=O)[C@H](CCC(=O)O)NC(=O)[C@H](CCC(=O)O)NC(=O)[C@@H](NC(=O)[C@H](CCCCN)NC(=O)[C@H](CCC(N)=O)NC(=O)[C@H](CCC(=O)O)NC(=O)[C@H](Cc1c[nH]c2ccccc12)NC(C)=O)[C@@H](C)CC)C(N)=O [LP-80] (Ac-WEQKIEELLKKAEEQQKKNEEELKKLEK(Stearoyl)-NH2)
Time of peak serum inhibitory activity after injection [1]: 6 to 8 h | level at 72 h [2]: ~7 ng/mL | AUC(0-inf) ([2]; iv): 288 ± 49.4 µg·h/mL | AUC(0-t) ([2]; iv): 288 ± 49.4 µg·h/mL | Cmax ([2]; iv): 53300 ± 10600 ng/mL | MRT ([2]; iv): 7.53 ± 0.85 h | Tmax ([2]; iv): 0.08 h | Vd ([2]; iv): 0.183 ± 0.0216 L/kg | AUC(0-inf) ([2]; sc): 114 ± 33.6 µg·h/mL | AUC(0-t) ([2]; sc): 114 ± 33.6 µg·h/mL | CL/F ([2]; sc): 0.958 mL/min/kg | Cmax ([2]; sc): 7650 ± 1580 ng/mL | MRT ([2]; sc): 9.73 ± 1.11 h | Tmax ([2]; sc): 4 ± 2.19 h
